Assay [1] relates to MBL-producing P. aeruginosa clinical isolates. The assay can be described thus: MIC by broth microdilution (CLSI). The assay is classed as cell-based, Pseudomonas aeruginosa. Particulars: Pseudomonas aeruginosa. Here is the method: The DMSO stock solutions of the test compounds were serially diluted to the desired concentrations in CAMHB. Then, 10 μL of the bacterial suspension (5 × 10^5 colony forming units (CFU)/mL) was combined with 200 μL of DMSO stock solutions of the test compounds in 96-well microtiter plates (1% DMSO, final). After the incubation of the plate at 37 °C for 24 h, bacterial growth was visibly evaluated by monitoring the turbidity of the resulting suspension, and the MICs were determined as the lowest concentrations of the test compounds that inhibited the visible growth of the bacteria.
For orientation: Broth dilution looks for growth in wells or tubes with falling amounts of substance.

The target in assay [2] is T1, VIM-2 (Escherichia coli, UniProt Q5U7L7).
T1 construct: Genes encoding OXA-48 (residues 23–265) and VIM-2 (residues 27–266) were custom-synthesized; made in house
The assay can be described thus: β-lactamase inhibition, nitrocefin hydrolysis. The assay is classed as biochemical. As to conditions: nitrocefin substrate; read-out: β-Lactamases, IC50 VIM-2. From the text:
(§1) Recombinant AmpC from Escherichia coli was produced according to a previously reported protocol. KPC-2 and NDM-1 […] were purchased from LifeSpan Biosciences, Inc. (Lynnwood, WA, USA) (LS-G26598) and RayBiotech, Inc. (Peachtree Corners, GA, USA) (230-00554), respectively. Genes encoding OXA-48 (residues 23–265) and VIM-2 (residues 27–266) were custom-synthesized (Bioneer Inc., Seoul, Republic of Korea) and expressed as previously described. The β-lactamase inhibitory activity of the title compounds was then determined according to the previously reported methods. Briefly, equal volumes (100 μL) of the title compounds (70–0.1 μM in PBS) and diluted enzyme stock were mixed (final concentration 2% of DMSO in 200 μL) in 96-well plates, which were then incubated at 37 °C for 20 min. The incubated mixture was added to each well containing substrates (nitrocefin for AmpC, KPC-2, OXA-48, and VIM-2; and imipenem for NDM-1) of final concentrations of 70 μM for nitrocefin and 100 μM for imipenem. Substrate hydrolysis was monitored at 486 nm (nitrocefin) or 300 nm (imipenem) for 15 min, using a Cytation 5 imaging multimode reader (BioTek Instruments Inc., Winooski, VT, USA). At the plateau level of hydrolysis, the corresponding rates of hydrolysis were compared to those obtained without inhibitors (100%) to determine the percentage of enzyme inhibition at each concentration of the title compounds. The IC50 values of the compounds were derived from sigmoidal dose–response curves, using GraphPad Prism 5 (GraphPad Software, Boston, MA, USA).

In assay [3] the target is T2, OXA-48 (Klebsiella pneumoniae, UniProt Q6XEC0).
T2 construct: Genes encoding OXA-48 (residues 23–265) and VIM-2 (residues 27–266) were custom-synthesized; made in house
T2 sequence (Q6XEC0 23-265 limits assumed): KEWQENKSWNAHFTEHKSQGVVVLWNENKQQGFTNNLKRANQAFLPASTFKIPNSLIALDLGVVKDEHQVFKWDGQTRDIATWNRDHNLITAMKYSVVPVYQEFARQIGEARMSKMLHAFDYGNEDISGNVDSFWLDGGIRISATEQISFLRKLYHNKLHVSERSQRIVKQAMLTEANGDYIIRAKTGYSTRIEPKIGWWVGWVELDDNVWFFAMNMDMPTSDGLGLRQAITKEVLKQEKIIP
The assay can be described thus: β-lactamase inhibition, nitrocefin hydrolysis. The assay is classed as biochemical. Particulars: nitrocefin substrate; read-out: β-Lactamases, IC50 OXA-48.
From the text: as §1

Assay [4] concerns the target T3, AmpC (Escherichia coli, UniProt P00811).
T3 construct: made in house
Nature of the assay: β-lactamase inhibition, nitrocefin hydrolysis. The assay is classed as biochemical.
From the text: as §1

Assay [5] addresses T4, KPC-2 (Klebsiella pneumoniae, UniProt Q9F663).
T4 construct: purchased LifeSpan Biosciences, Inc. LS-G26598
Nature of the assay: β-lactamase inhibition, nitrocefin hydrolysis. The assay is classed as biochemical. As to conditions: nitrocefin substrate; read-out: β-Lactamases, IC50 KPC-2.
From the text: as §1

In assay [6] the target is T5, NDM-1 (Klebsiella pneumoniae, UniProt C7C422).
T5 construct: purchased RayBiotech, Inc. 230-00554
T5 sequence (C7C422 29-270, looked up, species assumed): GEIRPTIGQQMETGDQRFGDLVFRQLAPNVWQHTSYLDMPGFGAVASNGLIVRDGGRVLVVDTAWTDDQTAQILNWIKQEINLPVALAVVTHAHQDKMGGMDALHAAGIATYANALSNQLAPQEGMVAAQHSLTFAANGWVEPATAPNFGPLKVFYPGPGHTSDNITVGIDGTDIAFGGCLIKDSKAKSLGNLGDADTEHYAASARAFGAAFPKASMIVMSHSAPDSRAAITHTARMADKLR
Nature of the assay: β-lactamase inhibition, imipenem hydrolysis. The assay is classed as biochemical. Particulars: imipenem substrate; read-out: β-Lactamases, IC50 NDM-1.
From the text: as §1

Values after ≈ are worked out from the molar mass of the structure shown.

T3 sequence (P00811 20-377): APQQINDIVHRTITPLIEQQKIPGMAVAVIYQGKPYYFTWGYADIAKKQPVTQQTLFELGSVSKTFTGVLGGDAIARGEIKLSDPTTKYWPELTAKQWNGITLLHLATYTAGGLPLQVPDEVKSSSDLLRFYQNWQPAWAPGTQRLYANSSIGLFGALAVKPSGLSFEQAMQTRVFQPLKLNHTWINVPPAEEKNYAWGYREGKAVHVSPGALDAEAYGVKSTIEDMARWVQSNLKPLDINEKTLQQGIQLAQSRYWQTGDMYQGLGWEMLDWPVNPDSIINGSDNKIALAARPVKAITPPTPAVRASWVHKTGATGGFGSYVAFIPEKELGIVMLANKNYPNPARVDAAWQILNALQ
T4 sequence (Q9F663 25-293, looked up): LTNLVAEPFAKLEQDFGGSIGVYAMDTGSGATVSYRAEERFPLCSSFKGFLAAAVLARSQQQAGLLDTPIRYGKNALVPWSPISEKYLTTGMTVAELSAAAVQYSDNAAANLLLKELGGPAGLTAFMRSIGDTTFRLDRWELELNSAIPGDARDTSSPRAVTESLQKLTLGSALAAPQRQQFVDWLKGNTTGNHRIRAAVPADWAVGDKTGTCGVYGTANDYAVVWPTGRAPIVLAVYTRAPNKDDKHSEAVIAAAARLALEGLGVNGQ

For orientation: MIC means the lowest concentration found to suppress growth. A high value points to a less susceptible organism. Take `NCC[C@H](O)C(=O)N[C@@H]1C[C@H](N)[C@@H](O[C@H]2O[C@H](CN)[C@@H](O)[C@H](O)[C@H]2O)[C@H](O)[C@H]1O[C@H]1O[C@H](CO)[C@@H](O)[C@H](N)[C@H]1O` [AMK, amikacin]: the minimum inhibitory concentration (MIC) in assay [1] (PA-001, blaNDM) is greater than 32 µg/mL; in assay [1] (PA-002, blaIMP) it was greater than 32 µg/mL; in assay [1] (PA-007, blaNDM) it was greater than 32 µg/mL; in assay [1] (PA-008, blaNDM), greater than 32 µg/mL; in assay [1] (PA-011, blaNDM), greater than 32 µg/mL; in assay [1] (PA-012, blaNDM), no more than 4 µg/mL. The MIC in assay [1] (PA-016, blaIMP) was greater than 32 µg/mL; in assay [1] (PA-017, blaNDM) it was greater than 32 µg/mL; in assay [1] (PA-019, blaNDM) it was greater than 32 µg/mL; in assay [1] (PA-020, blaNDM) it was greater than 32 µg/mL; in assay [1] (PA-023, blaNDM) it was greater than 32 µg/mL; in assay [1] (PA-025, blaNDM), greater than 32 µg/mL. The MIC in assay [1] (PA-027, blaIMP) is greater than 32 µg/mL; in assay [1] (PA-028, blaNDM) it was greater than 32 µg/mL; in assay [1] (PA-029, blaIMP), greater than 32 µg/mL; in assay [1] (PA-030, blaIMP), greater than 32 µg/mL; in assay [1] (PA-034, blaNDM) it was greater than 32 µg/mL; in assay [1] (PA-036, blaNDM), greater than 32 µg/mL. Besides, the MIC in assay [1] (PA-038, blaNDM) is greater than 32 µg/mL; in assay [1] (PA-039, blaNDM) it was no more than 4 µg/mL; in assay [1] (PA-044, blaNDM), greater than 32 µg/mL.

As for `CC(C)(O/N=C(\C(=O)N[C@@H]1C(=O)N2C(C(=O)[O-])=C(C[n+]3ccccc3)CS[C@H]12)c1csc(N)n1)C(=O)O` [CAZ, ceftazidime], the MIC in assay [1] (PA-001, blaNDM) is greater than 16 µg/mL; in assay [1] (PA-002, blaIMP), greater than 16 µg/mL; in assay [1] (PA-007, blaNDM), greater than 16 µg/mL; in assay [1] (PA-008, blaNDM), greater than 16 µg/mL; in assay [1] (PA-011, blaNDM) it was greater than 16 µg/mL; in assay [1] (PA-012, blaNDM), greater than 16 µg/mL. For the same molecule, the MIC is greater than 16 µg/mL in assay [1] (PA-016, blaIMP); greater than 16 µg/mL in assay [1] (PA-017, blaNDM); greater than 16 µg/mL in assay [1] (PA-019, blaNDM); greater than 16 µg/mL in assay [1] (PA-020, blaNDM); greater than 16 µg/mL in assay [1] (PA-023, blaNDM); greater than 16 µg/mL in assay [1] (PA-025, blaNDM). For the same molecule, the MIC in assay [1] (PA-027, blaIMP) was greater than 16 µg/mL; in assay [1] (PA-028, blaNDM) it was greater than 16 µg/mL; in assay [1] (PA-029, blaIMP) it was greater than 16 µg/mL; in assay [1] (PA-030, blaIMP), greater than 16 µg/mL; in assay [1] (PA-034, blaNDM) it was greater than 16 µg/mL; in assay [1] (PA-036, blaNDM), greater than 16 µg/mL. Also, the MIC in assay [1] (PA-038, blaNDM) is greater than 16 µg/mL; in assay [1] (PA-039, blaNDM), greater than 16 µg/mL; in assay [1] (PA-044, blaNDM), greater than 16 µg/mL.

What is called IC50 is the concentration needed to halve the response being measured. On to `CC(C)(C)CC(=O)Oc1c(-c2ccc(F)c(F)c2)oc2cc(O)cc(O)c2c1=O` [Compound 3], for which the half-inhibitory concentration (IC50) was found to be 20.3 µM in assay [2]; 21.2 µM in assay [3]; 19.2 µM in assay [4]; 22.2 µM in assay [5]; 24.6 µM in assay [6].

As to `CO/N=C(\C(=O)N[C@@H]1C(=O)N2C(C(=O)[O-])=C(C[N+]3(C)CCCC3)CS[C@H]12)c1csc(N)n1` [FEP, cefepime], the MIC in assay [1] (PA-001, blaNDM) is greater than 16 µg/mL; in assay [1] (PA-002, blaIMP) it was greater than 16 µg/mL; in assay [1] (PA-007, blaNDM), 16 µg/mL (≈ 33.3 µM); in assay [1] (PA-008, blaNDM), greater than 16 µg/mL; in assay [1] (PA-011, blaNDM), greater than 16 µg/mL; in assay [1] (PA-012, blaNDM), greater than 16 µg/mL. Also, the MIC in assay [1] (PA-016, blaIMP) was greater than 16 µg/mL; in assay [1] (PA-017, blaNDM) it was greater than 16 µg/mL; in assay [1] (PA-019, blaNDM), greater than 16 µg/mL; in assay [1] (PA-020, blaNDM), 16 µg/mL (≈ 33.3 µM); in assay [1] (PA-023, blaNDM), greater than 16 µg/mL; in assay [1] (PA-025, blaNDM), greater than 16 µg/mL. Besides, the MIC in assay [1] (PA-027, blaIMP) is greater than 16 µg/mL; in assay [1] (PA-028, blaNDM), greater than 16 µg/mL; in assay [1] (PA-029, blaIMP), greater than 16 µg/mL; in assay [1] (PA-030, blaIMP), greater than 16 µg/mL; in assay [1] (PA-034, blaNDM), greater than 16 µg/mL; in assay [1] (PA-036, blaNDM), greater than 16 µg/mL. Also, the MIC was greater than 16 µg/mL in assay [1] (PA-038, blaNDM); greater than 16 µg/mL in assay [1] (PA-039, blaNDM); greater than 16 µg/mL in assay [1] (PA-044, blaNDM).

These data come from paper PMC10892423 (Pharmaceutics, 2024).
